Measurements published in the NIST ThermoML archive (doi:10.1021/acs.jced.7b01053).
Where “and” joins values, the source holds several entries; their conditions need not be identical. Equal entries are not always repeated. Numbers after ± are expanded uncertainties.

Test: mn = molality of the nth substance listed, in mol/kg
Conditions: 293 K, 100 kPa, Liquid, Alternating current cell with electrodes

CC(=O)[O-].[NH3+]CCO [2-hydroxyethylammonium acetate] + O
Conditions	electrical conductivity [S/m]
m1 = 0.02015	0.13 ± 0.008
m1 = 0.0241	0.138 ± 0.016
m1 = 0.03983	0.262 ± 0.02
m1 = 0.04796	0.274 ± 0.02
m1 = 0.05774	0.359 ± 0.027
m1 = 0.07416	0.45 ± 0.034
m1 = 0.07452	0.4 ± 0.029
m1 = 0.09015	0.539 ± 0.041
m1 = 0.09982	0.512 ± 0.038
m1 = 0.1057	0.618 ± 0.051
m1 = 0.1213	0.702 ± 0.057
m1 = 0.1267	0.628 ± 0.051
m1 = 0.1356	0.775 ± 0.068
m1 = 0.1485	0.835 ± 0.073
m1 = 0.1519	0.737 ± 0.063
m1 = 0.1621	0.9 ± 0.084
m1 = 0.1743	0.958 ± 0.089
m1 = 0.1778	0.847 ± 0.076
m1 = 0.1867	1.02 ± 0.1
m1 = 0.2004	1.08 ± 0.16
m1 = 0.2025	0.95 ± 0.15
m1 = 0.2157	1.14 ± 0.12
m1 = 0.2285	1.06 ± 0.1
m1 = 0.2326	1.21 ± 0.15
m1 = 0.2502	1.29 ± 0.14
m1 = 0.2521	1.16 ± 0.12
m1 = 0.2691	1.37 ± 0.15
m1 = 0.2755	1.23 ± 0.13
m1 = 0.2868	1.44 ± 0.17
m1 = 0.2977	1.33 ± 0.15
m1 = 0.3032	1.44 ± 0.17
m1 = 0.3189	1.48 ± 0.17
m1 = 0.3199	1.42 ± 0.16
m1 = 0.3337	1.56 ± 0.19
m1 = 0.3404	1.49 ± 0.17
m1 = 0.3476	1.61 ± 0.2
m1 = 0.3609	1.61 ± 0.2
m1 = 0.3615	1.57 ± 0.19
m1 = 0.3811	1.64 ± 0.21
m1 = 0.3855	1.75 ± 0.23
m1 = 0.4003	1.72 ± 0.22
m1 = 0.4075	1.86 ± 0.25
m1 = 0.4184	1.77 ± 0.23
m1 = 0.4279	1.93 ± 0.26
m1 = 0.4359	1.83 ± 0.24
m1 = 0.4463	1.98 ± 0.28
m1 = 0.4526	1.87 ± 0.25
m1 = 0.4627	2.03 ± 0.29
m1 = 0.4642	1.9 ± 0.26
m1 = 0.4774	2.08 ± 0.32
m1 = 0.4797	1.94 ± 0.29
m1 = 0.4943	1.99 ± 0.28
m1 = 0.5085	2.04 ± 0.29
m1 = 0.5221	2.09 ± 0.3
m1 = 0.5351	2.13 ± 0.31
m1 = 0.5473	2.17 ± 0.32
m1 = 0.5594	2.23 ± 0.34
m1 = 0.5705	2.27 ± 0.34

CC(=O)[O-].OCC[NH2+]CCO [2,2'-azanediylbis(ethanol) acetate] + O
Conditions	electrical conductivity
m1 = 0.02102	0.103 ± 0.01 S/m
m1 = 0.02229	0.092 ± 0.011 S/m
m1 = 0.0413	0.189 ± 0.011 S/m
m1 = 0.04556	0.185 ± 0.011 S/m
m1 = 0.06489	0.299 ± 0.021 S/m
m1 = 0.06982	0.299 ± 0.021 S/m
m1 = 0.08642	0.38 ± 0.027 S/m
m1 = 0.0929	0.387 ± 0.027 S/m
m1 = 0.11	0.471 ± 0.034 S/m
m1 = 0.1182	0.481 ± 0.035 S/m
m1 = 0.133	0.551 ± 0.042 S/m
m1 = 0.1442	0.574 ± 0.044 S/m
m1 = 0.1566	0.637 ± 0.051 S/m
m1 = 0.17	0.664 ± 0.053 S/m
m1 = 0.1784	0.715 ± 0.059 S/m
m1 = 0.1932	0.749 ± 0.063 S/m
m1 = 0.2015	0.79 ± 0.068 S/m
m1 = 0.2176	0.822 ± 0.072 S/m
m1 = 0.2233	0.87 ± 0.078 S/m
m1 = 0.2404	0.892 ± 0.081 S/m
m1 = 0.2459	0.947 ± 0.088 S/m
m1 = 0.2633	0.966 ± 0.094 S/m
m1 = 0.2671	1.01 ± 0.1 S/m
m1 = 0.2853	1.03 ± 0.1 S/m
m1 = 0.2885	1.08 ± 0.11 S/m
m1 = 0.3076	1.11 ± 0.11 S/m
m1 = 0.3083	1.14 ± 0.12 S/m
m1 = 0.3285	1.16 S/m and 1.2 S/m
m1 = 0.3471	1.26 ± 0.14 S/m
m1 = 0.3495	1.22 ± 0.13 S/m
m1 = 0.3658	1.32 ± 0.15 S/m
m1 = 0.3689	1.27 ± 0.14 S/m
m1 = 0.3832	1.37 ± 0.15 S/m
m1 = 0.3886	1.33 ± 0.15 S/m
m1 = 0.4004	1.42 ± 0.16 S/m
m1 = 0.4068	1.38 ± 0.15 S/m
m1 = 0.4163	1.46 ± 0.17 S/m
m1 = 0.4248	1.43 ± 0.16 S/m
m1 = 0.4322	1.51 ± 0.18 S/m
m1 = 0.4417	1.47 ± 0.17 S/m
m1 = 0.4472	1.55 ± 0.19 S/m
m1 = 0.4583	1.51 ± 0.18 S/m
m1 = 0.4617	1.59 ± 0.19 S/m
m1 = 0.4738	1.56 ± 0.19 S/m
m1 = 0.4751	1.64 ± 0.2 S/m
m1 = 0.4881	1.68 ± 0.21 S/m
m1 = 0.489	1.61 ± 0.2 S/m
m1 = 0.5005	1.73 ± 0.23 S/m
m1 = 0.5032	1.65 ± 0.2 S/m
m1 = 0.5129	1.76 ± 0.23 S/m
m1 = 0.5172	1.68 ± 0.21 S/m
m1 = 0.5243	1.8 ± 0.23 S/m
m1 = 0.5302	1.7 ± 0.22 S/m
m1 = 0.5355	1.83 ± 0.24 S/m
m1 = 0.5436	1.73 ± 0.22 S/m
m1 = 0.5561	1.76 ± 0.23 S/m

CCCCC(=O)[O-].[NH3+]CCO [2-hydroxy ethylammonium pentanoate] + O
Conditions	electrical conductivity [S/m]
m1 = 0.01913	0.108 ± 0.011
m1 = 0.01918	0.068 ± 0.014
m1 = 0.03718	0.19 ± 0.015
m1 = 0.03781	0.126 ± 0.013
m1 = 0.05621	0.26 ± 0.019
m1 = 0.05801	0.176 ± 0.014
m1 = 0.07457	0.309 ± 0.047
m1 = 0.07759	0.244 ± 0.046
m1 = 0.09498	0.365 ± 0.04
m1 = 0.09926	0.296 ± 0.02
m1 = 0.1135	0.412 ± 0.029
m1 = 0.1187	0.344 ± 0.024
m1 = 0.1336	0.48 ± 0.035
m1 = 0.1402	0.393 ± 0.028
m1 = 0.152	0.526 ± 0.039
m1 = 0.1594	0.439 ± 0.031
m1 = 0.1718	0.578 ± 0.044
m1 = 0.1796	0.483 ± 0.035
m1 = 0.1899	0.625 ± 0.049
m1 = 0.1981	0.523 ± 0.039
m1 = 0.2067	0.661 ± 0.055
m1 = 0.2174	0.664 ± 0.053
m1 = 0.224	0.701 ± 0.058
m1 = 0.2348	0.597 ± 0.046
m1 = 0.24	0.739 ± 0.062
m1 = 0.2529	0.637 ± 0.05
m1 = 0.2565	0.776 ± 0.066
m1 = 0.2697	0.669 ± 0.13
m1 = 0.272	0.809 ± 0.14
m1 = 0.2867	0.704 ± 0.058
m1 = 0.2875	0.844 ± 0.074
m1 = 0.302	0.875 ± 0.078
m1 = 0.3024	0.734 ± 0.061
m1 = 0.3165	0.904 ± 0.083
m1 = 0.3181	0.759 ± 0.065
m1 = 0.3299	0.93 ± 0.13
m1 = 0.3329	0.786 ± 0.068
m1 = 0.3434	0.957 ± 0.09
m1 = 0.3474	0.812 ± 0.071
m1 = 0.3561	0.983 ± 0.093
m1 = 0.3608	0.832 ± 0.073
m1 = 0.3685	1.01 ± 0.097
m1 = 0.3744	0.855 ± 0.076
m1 = 0.38	1.03 ± 0.1
m1 = 0.3866	0.876 ± 0.078
m1 = 0.3914	1.05 ± 0.1
m1 = 0.3988	0.895 ± 0.081
m1 = 0.402	1.07 ± 0.11
m1 = 0.4101	0.917 ± 0.084
m1 = 0.4126	1.09 ± 0.11
m1 = 0.4215	0.925 ± 0.085
m1 = 0.4221	1.11 ± 0.11
m1 = 0.4316	1.13 ± 0.11
m1 = 0.4318	0.94 ± 0.087
m1 = 0.4404	1.14 ± 0.12
m1 = 0.4421	0.957 ± 0.089
m1 = 0.4517	0.971 ± 0.091
